Reference: US11932850B2, “Cancer chemoprevention with STAT3 blockers” (Jill M. Siegfried, LLC, priority 2018, dated 2024)

What was measured:
[1] = molecular target: T1, pSTAT3-ubiquitin complexes in H1975 cells (Homo sapiens, UniProt P40763); experiment: p-STAT3 immunoprecipitation and ubiquitin immunoblot; assay type: cell-based; conditions: H1975, 100 nM, 24 hr post-transfection
T1 construct: Post-transfection with either 100 nM CS3D or CS3M, H1975 were lysed in IP lysis buffer; endogenous in cells; host or cells: H1975

[2] = molecular target: STAT3 (Homo sapiens, UniProt P40763); conditions: Leong et al., 2003; cited from earlier work
[3] = system: M1 macrophages, M2 macrophages, MDSCs; experiment: Flow cytometry of immune cells isolated from lungs of NNK mice; assay type: in vivo; conditions: NNK 4 weeks then 1 week of drug administration
Excerpt: STAT3 also plays a central role in immune evasion. STAT3 specifically orchestrates immunosuppression by promoting M2 macrophage and myeloid-derived suppressor cells (MDSCs) activity while suppressing M1 macrophage function [Su et al. Int. J. Mol. Science 19: pll:E1803, 2018]. Thus STAT3 inhibition by CS3D should favor an antitumor immune response by enhancing M1 macrophage activity.
Lungs from mice were digested with RPMI media containing collagenase and DNase to obtained single cell suspension. The cells were counted and 1×10^6 cells were staining with fluorescent labeled CD45, CD11b, MHC II, Ly6C and F4/80. The labeled cells were gated and data acquired on LSR fortessa (BD Biosciences) and further analysed by Flowjo.

[4] = system: Ki-67, p-STAT3, NF-κB in H1975 xenografts; experiment: IHC of H1975 xenografts after 5 daily iv injections; assay type: in vivo, nude mice; conditions: H1975 xenografts
Experimental: Because tumors treated for several weeks with the STAT3 decoy were largely composed of debris (as illustrated in FIG. 11), xenografts were examined after only 5 daily tail vein injections to determine what cellular changes were induced prior to collapse of the intracellular tumor structure. […] Tumors derived from H1975 xenografs were analyzed by immunohistochemical staining for p-STAT3 after 5 daily iv injections of either STAT3 decoy or mutant decoy. […] This effect is quantified in FIG. 9B.
Images were captured at 40× magnification. A shift from 41% of cells was observed and scored as high-grade staining with CS3M treatment to 13% with high-grade staining in the presence of CS3D, with corresponding increases in moderate- and low-grade staining in the STAT3 decoy treated group (FIG. 12B). […] Bright field images were captured at 40× magnification. Frequency of high-grade staining for p-STAT3 differed between CS3D and CS3M treatment groups (23% in CS3D-treated and 51% in CS3M treated, with corresponding increase in low-grade staining in presence of the active decoy (FIG. 9B). Significant degradation of p-STAT3 protein was detected by IHC in tumors was observed after treatment with CS3D. Percent of high staining fields was reduced from 48% to 22% while percent of fields with low staining increased, P<0.001 (FIG. 9B).
(§1) Immunohistochemical analysis: Tumors were excised for immunohistochemical (IHC) staining; 5-μm (micron) sections were cut from formalin-fixed paraffin-embedded tissue blocks, deparaffinized and rehydrated using successive washes of xylene followed by ethanol. Antigen retrieval was performed in a microwave oven (for 20 minutes) in an unmasking solution containing sodium citrate buffer followed by peroxidase blocking in 3% hydrogen peroxide. The sections were incubated in ABC blocking buffer (Vector laboratories Inc, Burlingame, California) for 1 hour at room temperature. Sections were then stained with H&E (hematoxylin and eosin) or subjected to sequential incubations with different primary antibodies and peroxidase-conjugated goat anti-rabbit secondary antibodies. The following primary antibodies were used (at the indicated dilutions): cleaved caspase-3 (#9664, Cell Signaling, 1:300), p-STAT3 (#9145, Cell Signaling, 1:400), Ki67 (#ab15580, Abcam, 1:1000). Sections were developed with DAB and counterstained with hematoxylin. Bright field microscopy was performed using Leica DM 4000 B LED microscope and images were captured at 20× and 40× magnification using LASv4.7 software. IHC analysis was done as a blinded study with 100 images from each treatment group graded as low, moderate, or high. Staining was graded as low (<30% positive cells per field, scored as 1), moderate (30-60% positive cells per field, scored as 2) or high (>60% positive cells per field, scored as 3).

[5] = system: c-Myc in H1975-derived tumors; experiment: c-Myc expression in H1975 xenograft tumors (Western blot); assay type: in vivo, nude mice; conditions: H1975 xenograft tumors, range among individual tumors
Experimental: FIGS. 7C and 7D show c-Myc is suppressed after CS3D treatment in vivo. At the end of the treatments, tumors were harvested, whole cell lysates were prepared and RNA extracted for target gene analysis by Western blotting and RT-qPCR GAPDH protein was used as internal loading control for immunoblotting. CS3D treated tumors (C4, C5, and C6) from separate animals show a decrease in c-Myc expression level relative to the CS3M-treated group (C1, C2, and C3) in 201T. […] Data are shown as mean+/−SEM.
To determine how CS3D blocks NSCLC growth, Western blot, qRT-PCR, and immunohistochemical analysis were performed to determine expression of c-Myc in residual tumors. These analyses identified a substantial downregulation of c-Myc protein (FIGS. 7C and 7D) and mRNA levels (FIG. 7E) in individual CS3D-treated tumors relative to CS3M-treated tumors in both 201T and H1975 xenografts. Some variability in protein levels among individual xenografts was observed (FIGS. 7C and 7D); the densitometry units for c-Myc protein after normalizing for GAPDH levels ranged from 0.11-0.16 units for CS3D-treated xenografts and 0.25-0.46 units for CS3M-treated tumors in H1975. Similarly, in 201T-derived tumors these measurements ranged from 0.015 to 0.51 units for CS3D and 0.28 to 0.97 units for CS3M. Even with this variability, the effect across the groups in both cell lines was significant (P<0.05 for H1975 and P<0.042 for 201T xenografts), with a mean decrease of 65% and 70%, respectively.

[6] = system: cleaved caspase-3 in H1975 xenografts; experiment: IHC of cleaved caspase-3 in H1975 xenografts at end of treatment; assay type: in vivo, nude mice; conditions: after last day of treatment (day 14)
Excerpt: For mRNA levels in tumor lysates, CS3D produced a 60-70% reduction of c-Myc gene expression relative to GAPDH compared to CS3M (FIG. 7E). […] Some cleaved caspase 3 staining was localized in nuclei, where caspase-3 is known to be active. Some caspase 3 staining was also evident in fibroblasts.
as §1, with “The following primary antibodies were used (at the indicated dilutions): cleaved caspase-3 (#9664, Cell Signaling, 1:300), p-STAT3 (#9145, Cell Signaling, 1:400), Ki67 (#ab15580, Abcam, 1:1000). Sections were developed with DAB and counterstained with hematoxylin. Bright field microscopy was performed using Leica DM 4000 B LED microscope and images were captured at 20× and 40× magnification using LASv4.7 software. IHC analysis was done as a blinded study with 100 images from each treatment group graded as low, moderate, or high.” left out

Chain of STAT3 (P40763 whole entry, species assumed): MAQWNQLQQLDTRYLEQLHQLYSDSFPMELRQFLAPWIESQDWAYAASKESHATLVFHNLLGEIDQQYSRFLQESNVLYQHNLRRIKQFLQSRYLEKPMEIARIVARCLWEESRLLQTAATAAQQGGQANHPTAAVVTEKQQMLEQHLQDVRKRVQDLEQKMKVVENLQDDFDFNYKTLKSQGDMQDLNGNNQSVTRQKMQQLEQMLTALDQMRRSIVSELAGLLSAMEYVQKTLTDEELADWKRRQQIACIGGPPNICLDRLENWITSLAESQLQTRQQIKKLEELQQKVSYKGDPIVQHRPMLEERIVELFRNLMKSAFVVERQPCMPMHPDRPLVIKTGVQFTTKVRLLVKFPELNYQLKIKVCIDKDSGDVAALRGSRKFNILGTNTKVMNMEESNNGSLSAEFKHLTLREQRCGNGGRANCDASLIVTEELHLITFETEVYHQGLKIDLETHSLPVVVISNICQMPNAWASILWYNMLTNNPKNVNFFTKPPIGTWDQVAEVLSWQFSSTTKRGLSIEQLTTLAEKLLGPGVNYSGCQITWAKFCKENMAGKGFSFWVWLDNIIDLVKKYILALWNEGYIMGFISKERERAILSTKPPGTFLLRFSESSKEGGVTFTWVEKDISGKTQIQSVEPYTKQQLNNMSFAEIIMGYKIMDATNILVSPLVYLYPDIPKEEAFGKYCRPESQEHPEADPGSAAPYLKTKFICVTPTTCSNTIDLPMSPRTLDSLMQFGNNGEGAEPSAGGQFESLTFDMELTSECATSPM
T1 sequence (P40763 2-770 limits assumed, one chain of several): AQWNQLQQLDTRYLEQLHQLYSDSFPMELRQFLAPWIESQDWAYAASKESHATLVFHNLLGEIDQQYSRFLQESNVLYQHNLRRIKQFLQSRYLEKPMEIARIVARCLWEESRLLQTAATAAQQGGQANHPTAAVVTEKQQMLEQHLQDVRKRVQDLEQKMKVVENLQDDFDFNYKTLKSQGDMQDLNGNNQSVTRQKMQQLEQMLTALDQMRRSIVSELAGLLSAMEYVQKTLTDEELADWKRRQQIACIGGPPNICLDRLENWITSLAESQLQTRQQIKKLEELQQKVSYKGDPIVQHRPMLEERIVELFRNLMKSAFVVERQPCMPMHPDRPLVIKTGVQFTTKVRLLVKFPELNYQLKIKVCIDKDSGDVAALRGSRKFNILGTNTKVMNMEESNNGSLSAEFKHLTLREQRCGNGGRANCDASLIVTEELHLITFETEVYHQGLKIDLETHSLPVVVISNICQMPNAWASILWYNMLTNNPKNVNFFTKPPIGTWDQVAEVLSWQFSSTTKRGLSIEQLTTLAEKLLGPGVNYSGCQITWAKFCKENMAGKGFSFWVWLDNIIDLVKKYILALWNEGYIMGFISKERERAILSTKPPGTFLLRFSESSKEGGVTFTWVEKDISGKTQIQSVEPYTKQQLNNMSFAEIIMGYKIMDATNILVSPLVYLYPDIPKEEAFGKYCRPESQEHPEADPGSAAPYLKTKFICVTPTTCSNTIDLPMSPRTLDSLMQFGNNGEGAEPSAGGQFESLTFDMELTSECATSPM

CS3M: mutant inactive control of CS3D, T-A base pair replacing G-C base pair at position 9 (SEQ ID NO. 6); unable to bind STAT3 (GATTTAAGGGAAATGCSCATTTCCC; cyclic decoy, mutant control, further chemistry not given here) [reference compound]
ratio of pSTAT3-ubiquitin complex to STAT3 (densitometry) [1]: 0.74 | binding to STAT3 [2]: unable to bind STAT3 | M2 macrophages [3]: 18.3% | MDSCs [3]: 4.56% | Ki-67 high-grade staining ([4]; 5 daily injections): 41% | frequency of high-grade staining for p-STAT3 ([4]; 5 daily iv injections): 51% | percent of high staining fields for p-STAT3 ([4]; second statement in b134 (FIG. 9B)): 48% | c-Myc protein densitometry normalized for GAPDH [5]: 0.25-0.46 units | fields scoring high level of cleaved caspase-3 [6]: 10%
